In the case of `Cc1ccc(-n2nc(C(C)(C)C)cc2NC(=O)Nc2ccc(-c3cnc4c(c3)NC(=O)CO4)c3ccccc23)cc1`, the melting point is reported as > 200 °C. With `CCC(=O)C(Cc1cc(C#N)cc(C#N)c1)C(=O)CC` the melting point was 67 to 69 °C. In the case of `COc1ccc(N2CCN(C(=O)NCCN(C)C)CC2)cc1`, the melting point is reported as 79 to 82 °C. In the case of `CNC1Oc2cc(Cl)cc(-c3ccccc3C)c2O1` (stereo not given), the melting point is reported as > 250 °C. Work on `NC(=O)N(O)Cc1ccc(OCCc2noc(-c3ccccc3)n2)cc1` yielded a melting point of 135 to 136 °C. With `Cc1ccc(-c2nnc3c(n2)CCCC3)nc1-c1ccc(F)cc1` the melting point was 105 °C. Work on `CCOC(=O)c1[nH]c2cc(Cl)cc(Cl)c2c1NCS(=O)(=O)c1ccccc1` yielded a melting point of 244 to 245 °C. For `Nc1ccc(C2CCSCC2)cc1`, the melting point was 103 to 106 °C. `O=C(O)CC(CCCCNS(=O)(=O)c1ccc(Cl)cc1)CCCc1cccnc1` (stereo not given) gave a melting point of 95 to 97 °C. For `O=C(O)[C@H](Cc1ccc(OCCc2coc(-c3ccccc3)n2)cc1)NS(=O)(=O)Cc1ccccc1`, the melting point was 141 to 143 °C. Compound `C=Cc1cc(CCNc2ncnc3c(F)ccc(F)c23)ccc1Oc1cc(C(F)(F)F)ccn1` has a melting point of 86 °C. In the case of `O=C(O)Cc1ccc2c(c1)C(=O)c1ccc(Cl)cc1CO2`, the melting point is reported as 188 to 190 °C. Work on `Nc1cccc2c3c([nH]c12)C(=O)CCC3` yielded a melting point of 233 to 234 °C. With `NC(=O)N(O)CC1=NOC(c2ccc(F)cc2)C1` (stereo not given) the melting point was 151 to 152 °C. Compound `CCCCn1c(=O)c2c(ncn2S(=O)(=O)c2c(C)noc2C)n(CCCC)c1=O` has a melting point of 103 to 105 °C. For `Cc1cc2c(c(C)c1NCc1ccccc1)C(c1ccc(C(C)C)cc1)CO2` (stereo not given), the melting point was 82 to 83 °C. Work on `CCOC(=O)/C=C/c1cn(Cc2ccc(OCc3nc(-c4ccco4)oc3C)cc2)nc1OCc1ccc(OCc2nc(-c3ccco3)oc2C)cc1` yielded a melting point of 138 to 139 °C. With `CC(C)CC(=O)Nc1ccc2oc3c(c2c1)CCCCCC3` the melting point was 154 to 155 °C. For `C=C(C)Sc1oc2cc(OCc3ccccc3)ccc2c(=O)c1-c1ccc(OC)cc1`, the melting point was 101 to 102 °C. In the case of `COC(=O)c1ncn2c1CN=C(c1ccccc1Cl)c1cc(Cl)ccc1-2`, the melting point is reported as 206 to 208 °C. With `Nc1ccc(-c2n[nH]c3c2Cc2ccccc2-3)cc1` the melting point was 253 to 254 °C. `O=Cc1ccc(OCCN2CCN(c3cc(Cl)nnc3Cl)CC2)cc1` showed a melting point of 110 to 112 °C. Work on `COc1cc(-c2ccccc2F)c(Cl)cc1C(=O)N1Cc2ccc(C(=O)O)n2Cc2ccccc21` yielded a melting point of 192 to 194 °C. With `O=C(Cn1sc2ccccc2c1=O)N1CCN(C(=O)OCc2ccccc2)CC1` the melting point was 138 to 142 °C. `CC(=O)c1c(C)nn2ccccc12` showed a melting point of 85.2 to 88.1 °C. Compound `c1cnc(NCCCNCC2CCc3ccc4c(c3O2)CCCC4)nc1` (stereo not given) has a melting point of 57.6 °C. With `COc1ccc2c(c1)sc1c(C(=O)Nc3nnn[nH]3)cnc(=O)n12` the melting point was 234 to 235 °C. For `Cc1oc(-c2ccc(-c3ccccc3)cc2)nc1CCOc1ccc(OC(C)(C)C(=O)O)cc1`, the melting point was 123 to 124 °C. `CC(C)OC(=O)CC(NCCCN(C)C)C(=O)O` (stereo not given) gave a melting point of 164 to 166 °C. `O=C(O)CCCCN(C(=O)c1ccc(Cl)cc1)c1cccc2ccccc12` showed a melting point of 169 to 170 °C. In the case of `CCOC(=O)C1CN2c3c(cc4ccccc4c3CCC2C)C1=O` (stereo not given), the melting point is reported as 178 to 180 °C. `NC(=O)c1cc(-c2nccs2)[nH]c1C(CC1CCOCC1)c1ccc(S(=O)(=O)C2CC2)cc1` (stereo not given) showed a melting point of 241 to 243 °C. `CCNC(=O)c1ccc(-n2nnc(C(=O)NC3CC3)c2CO)c(O)c1` gave a melting point of 185 °C. In the case of `O=C(Nc1ccc(-c2ncon2)cc1)OCC(Cl)(Cl)Cl`, the melting point is reported as 108 to 110 °C. For `CCNC(=S)NCc1cccc2c1C(=O)N(C1CCC(=O)NC1=O)C2=O` (stereo not given), the melting point was 154 to 156 °C. Compound `CC(C)(Cl)Cn1ncc(OCc2ccc(I)nc2)c(Cl)c1=O` has a melting point of 119 to 123 °C. With `CC(=O)Nc1cccc(/C=C/C(=O)N2CC(CCl)c3ccc([N+](=O)[O-])cc32)c1` (stereo not given) the melting point was 229 to 230 °C. `C[Si](C)(C)c1cccs1` gave a melting point of 61 to 62 °C. `O=C(O)CN(CC(=O)O)CC(CCc1ccc([N+](=O)[O-])cc1)N(CC(=O)O)CC(=O)O` (stereo not given) gave a melting point of 188 to 189 °C. Work on `Nc1nc(-c2cccnc2Cl)c(-c2cccnc2Cl)o1` yielded a melting point of 243 to 244 °C. With `Cc1ccsc1C(C)N(O)C(N)=O` (stereo not given) the melting point was 131 °C. `O=c1ccc(S(=O)(=O)c2c[nH]c3ccccc23)n[nH]1` showed a melting point of 248 to 250 °C. `CCOC(=O)C1(Sc2ccccc2[N+](=O)[O-])Cc2ccc(N(C)C)cc2NC1=O` (stereo not given) gave a melting point of 174 to 176 °C. `CCOCc1nc2c(N)nc3cc(N4CCOCC4)ccc3c2n1CCCOC(C)C` gave a melting point of 161 to 162 °C. `Nc1ccc2nccn2n1` showed a melting point of 198 to 202 °C. Work on `CN1CCC(=C2c3cc(C=O)n(C)c3CCn3ncnc32)CC1` yielded a melting point of 204 °C. For `CCOC(=O)C1=C(C)Nc2ccn(CCCN(C)C)c(=O)c2C1c1cccc([N+](=O)[O-])c1` (stereo not given), the melting point was 212 to 213 °C. In the case of `N=C(Nc1ccccc1I)Nc1cccc2ccccc12`, the melting point is reported as 154 to 155 °C. Compound `CCOC(=O)c1nc2cc(-c3ccccc3)sc2nc1N` has a melting point of 173 to 175 °C. `CS(=O)(=O)c1ccc(C2=C(c3ccccc3)C(=O)C2)cc1` showed a melting point of 139 to 140 °C. `CC(C)Oc1ccc(CCCOc2cc(CCC(=O)O)n(-c3ccccc3)n2)c(Oc2ccc(Cl)cc2Cl)n1` gave a melting point of 60 to 62 °C. In the case of `COc1cc(N)c(Cl)cc1C(=O)NCC1CCN(CCCS(=O)(=O)Cc2ccccc2)CC1`, the melting point is reported as 166 to 168 °C. `CCCCOC(=O)c1ccc2cc(O)ccc2c1` gave a melting point of 107 to 112 °C. In the case of `CC1N=C(N2CCN(C)CC2)NN=C1c1ccccc1` (stereo not given), the melting point is reported as 124 to 125 °C. Compound `CCOC1(OCC)CCC2(CC1)c1cc(O)c(O)cc1CC(C(=O)O)N2C(=O)OCc1ccccc1` (stereo not given) has a melting point of 132 to 133 °C. `O=C(Nc1ccc(Oc2ccccc2)cc1)N1CCN(c2ncnc3ccccc23)CC1` gave a melting point of 74 to 75 °C. `CCOC(=O)c1cn(CC)c2cc(-c3ccno3)ccc2c1=O` gave a melting point of 243 to 245 °C. Compound `Cc1ncccc1C(N)=O` has a melting point of 160 to 163 °C. With `O=[N+]([O-])c1ccc2nc(CS(=O)c3ccccn3)[nH]c2c1` (stereo not given) the melting point was 207 to 209 °C. Work on `Nc1nc(=O)n(C2C=CC(CO)O2)cc1F` (stereo not given) yielded a melting point of 206 °C. `CS(=O)c1ccc(-n2cnc(-c3ccc(F)cc3)c2-c2ccncc2)cc1` (stereo not given) gave a melting point of 202 to 203 °C. Work on `CCOC(=O)Cc1csc(NS(=O)(=O)c2ccccc2)n1` yielded a melting point of 129 to 130 °C. `CCOC(=O)C(C)c1ccc(-c2cn3ccccc3n2)cc1` (stereo not given) gave a melting point of 110 to 112 °C. With `Cc1cc(C)c(N2c3ccccc3S(=O)(=O)c3ccccc32)c(C)c1` the melting point was 242 to 246 °C. Work on `CCC(=O)c1ccc2c(c1)OCC(=O)N2` yielded a melting point of 174 to 176 °C. For `O=C(O)Cc1c(C(=O)c2ccncc2)[nH]c2cc(Cl)ccc12`, the melting point was 256 to 257 °C. `CC12CCC(O[Si](C)(C)C(C)(C)C)CC1=CC(=O)C1C2CCC2(C)C(O[Si](C)(C)C(C)(C)C)CCC12` (stereo not given) gave a melting point of 99 to 101 °C. `CC(=O)c1cn(Cc2ccc(F)cc2)c(=O)n(Cc2ccc(F)cc2)c1=O` gave a melting point of 134 to 135 °C. For `CCCCCCCCCCCC1CC(=O)C(CCCCCC)C(=O)O1` (stereo not given), the melting point was 112 to 114 °C. Compound `CCC1CN(Cc2ccccc2)c2c3c(nc4cccc(c24)O1)CCCC3` (stereo not given) has a melting point of 148 to 149 °C. In the case of `COC(=O)C(=CN(C)C)N(C)c1cc(-c2ccc(Cl)c(Cl)c2)n(C)n1`, the melting point is reported as 113 to 114 °C. Compound `O=C(CCc1ccc(S(=O)(=O)N(C(=O)c2c3ccccc3nc3ccccc23)c2ccc3c(c2)OCCO3)cc1)ON1C(=O)CCC1=O` has a melting point of 140 °C. `COc1ccc(C=CC(=O)c2c(OC)cc(OC)cc2OC(C)=O)cc1` gave a melting point of 105 to 107 °C. `NNc1cccc(-c2ccccn2)n1` showed a melting point of 69 to 70 °C. `N#CC1C(=O)NC(=O)C(C(=O)O)C12CCCCC2` (stereo not given) showed a melting point of 210 to 214 °C. `O=C1C=C(O[C@@H]2c3cc(C(F)(F)C(F)(F)F)ccc3OC(CF)(CF)[C@H]2O)CC1` (relative stereo) showed a melting point of 165 to 167 °C. `CCn1nc(C)c(CN(C(=O)C2CCCc3ccccc32)c2ccc(C(C)C)cc2)c1C` (stereo not given) showed a melting point of 142 to 143 °C. Compound `Cc1cccc(-c2n[nH]cc2-c2ccc(F)c(-c3ccc(OCCO)cn3)c2)n1` has a melting point of 148 to 151 °C. With `O=C(O)C(=O)c1cnsn1` the melting point was 130 to 133 °C. For `C[C@@H]1CCCN1CCc1ccc2cc(Br)ccc2n1`, the melting point was 49 to 50 °C. With `O=C(Nc1cc(Cl)ncn1)c1ccccc1SSc1ccccc1C(=O)Nc1cc(Cl)ncn1` the melting point was 254 to 256 °C. With `CC(C)(C)OC(=O)CO/N=C/c1cccc([N+](=O)[O-])c1` the melting point was 110 °C. `CCC(=O)NC[C@H]1CN(c2ccc(C3CCS(=O)(=O)CC3)c(F)c2)C(=O)O1` gave a melting point of 200 to 201 °C. `Nc1ccc(C=CC(=O)N2CCc3c([nH]c4ccccc34)C2c2ccc3c(c2)OCO3)cc1` (stereo not given) gave a melting point of 262 to 265 °C. For `COc1ccccc1SCC1NCCS1` (stereo not given), the melting point was 111 to 112 °C. With `NC(C=CP(=O)(O)O)(CO)CCc1ccc(Sc2cccc(OCc3ccccc3)c2)cc1Cl` (stereo not given) the melting point was 245 to 248 °C. In the case of `O=Cc1c2ccccc2c(Cl)c2cc3ccccc3cc12`, the melting point is reported as 212 to 214 °C. In the case of `CC(=O)NNC(=O)c1ccc(Br)c(C)c1`, the melting point is reported as 186 to 187 °C. Work on `CCOC(=O)CCCCOc1ccc(OCC)cc1C=O` yielded a melting point of 80 to 81 °C. In the case of `c1ccc2cc(-c3cc4nccnc4[nH]3)ncc2c1`, the melting point is reported as 281 to 285 °C. Work on `COc1cc(Nc2c(C#N)cnc3cc(NCCCC4CCN(C)CC4)c(OC)cc23)c(Cl)cc1Cl` yielded a melting point of 122 to 124 °C. `CCOC(=O)C(C)OCC#Cc1nc(Cl)ccc1N` (stereo not given) showed a melting point of 70 °C. With `NS(=O)(=O)c1ccc(-c2cnn(CC(F)(F)F)c(=O)c2-c2ccc(Cl)c(F)c2)cc1` the melting point was 180 to 183 °C. `Cc1nc2cc(Nc3ncc4ccc(-c5cccc(S(=O)(=O)NC(C)(C)C)c5)n4n3)ccc2o1` gave a melting point of 212 to 214 °C. Compound `CCn1cc(C(=O)O)c(=O)c2cc(F)c(N3CCNC(COC)C3)cc21` (stereo not given) has a melting point of 169 to 170 °C. For `COc1nc(C)cnc1N(C(=O)OCC(C)C)S(=O)(=O)c1cccnc1-c1ccc(CBr)cc1`, the melting point was 125 to 128 °C. In the case of `COc1cc(CCC(=O)CC(=O)c2ccc(F)cc2)ccc1O`, the melting point is reported as 56 to 57 °C. For `N#Cc1ccc([C@@H]2[C@@H]3C(=O)N(Cc4ccccc4)C(=O)[C@@H]3[C@H]3CCCN32)cc1` (racemic), the melting point was 191 to 193 °C. `Cc1cc(C)c(C(=O)c2ccccc2)c(OCC2CO2)c1` (stereo not given) gave a melting point of 72 to 74 °C. Compound `CC(=O)OCC1SC(Oc2cc(C)cc(O)c2C(C)=O)C(OC(C)=O)C(OC(C)=O)C1OC(C)=O` (stereo not given) has a melting point of 162 to 164 °C.

Source: a melting point compilation (Tetko et al.; mined from patent text by program, amines drawn as free bases though some values may be those of a salt)
